Series [1] relates to Oryza sativa. Description: Effect on Oryza sativa (rice) plant growth in transplanted Oryza sativa field assessed as plant height at 1500 g/ha treated after 3 days transplanting. It is filed as organism-based. As to conditions: in vivo, other, 72 h.
Series [2] has as its system Cyperus serotinus. The series can be described thus: Herbicidal activity against Cyperus serotinus assessed as weed control in transplanted rice field at 1500 g/ha treated after 7 days transplanting. It is filed as functional.
Series [3] deals with Sagittaria pygmaea. The series can be described thus: Herbicidal activity against Sagittaria pygmaea assessed as weed control in transplanted rice field at 1500 g/ha treated after 7 days transplanting. The series is classed as functional.
Series [4] has as its system unidentified. Description: Herbicidal activity against broadleaf weed assessed as weed control in transplanted rice field at 1500 g/ha treated after 7 days transplanting. The series is classed as functional.
Series [5] concerns Pontederia vaginalis. The series can be described thus: Herbicidal activity against Monochoria vaginalis assessed as weed control in transplanted rice field at 1500 g/ha treated after 7 days transplanting. It is filed as functional.
The subject of series [6] is Schoenoplectiella juncoides. Description: Herbicidal activity against Schoenoplectiella juncoides assessed as weed control in transplanted rice field at 1500 g/ha treated after 7 days transplanting. It is filed as functional.
Series [7] has as its system Echinochloa crus-galli. The series can be described thus: Herbicidal activity against Echinochloa crus-galli (barnyard grass) assessed as weed control in transplanted rice field at 1500 g/ha treated after 7 days transplanting. The series is classed as functional.
In series [8] the test system is Cyperus serotinus. The series can be described thus: Herbicidal activity against Cyperus serotinus assessed as weed control in transplanted rice field at 1500 g/ha treated after 3 days transplanting. It is filed as functional.
For series [9], the system named is Sagittaria pygmaea. Description: Herbicidal activity against Sagittaria pygmaea assessed as weed control in transplanted rice field at 1500 g/ha treated after 3 days transplanting. It is filed as functional.
For series [10], the system named is unidentified. Description: Herbicidal activity against broadleaf weed assessed as weed control in transplanted rice field at 1500 g/ha treated after 3 days transplanting. The series is classed as functional.
Series [11] deals with Pontederia vaginalis. The series can be described thus: Herbicidal activity against Monochoria vaginalis assessed as weed control in transplanted rice field at 1500 g/ha treated after 3 days transplanting. It is filed as functional.
Series [12] deals with Schoenoplectiella juncoides. Description: Herbicidal activity against Schoenoplectiella juncoides assessed as weed control in transplanted rice field at 1500 g/ha treated after 3 days transplanting. It is filed as functional.
Series [13] has as its system Echinochloa crus-galli. The series can be described thus: Herbicidal activity against Echinochloa crus-galli (barnyard grass) assessed as weed control in transplanted rice field at 1500 g/ha treated after 3 days transplanting. The series is classed as functional.
The subject of series [14] is Oryza sativa. Description: Effect on Oryza sativa (rice) plant growth in transplanted Oryza sativa field assessed as plant height at 1500 g/ha treated after 7 days transplanting. The series is classed as organism-based. Conditions: in vivo, other, 168 h.
The subject of series [15] is Oryza sativa. The series can be described thus: Effect on Oryza sativa (rice) plant growth in transplanted Oryza sativa field assessed as number of tillers at 1500 g/ha treated after 7 days transplanting. It is filed as organism-based. As to conditions: in vivo, other, 168 h.
Series [16] has as its system Oryza sativa. Description: Effect on Oryza sativa (rice) plant growth in transplanted Oryza sativa field assessed as number of tillers at 1500 g/ha treated after 3 days transplanting. It is filed as organism-based. Conditions: in vivo, other, 72 h.

For one compound, Activity results are on record in ChEMBL document CHEMBL3046449, “Selective Herbicidal Activities of Ethyl 5-(4, 6-Dimethoxypyrimidin-2-ylcarbamoylsulfamoyl)-1-methylpyrazole-4-carboxylate and Its Related Compounds” (J Pestic Sci, 1990).

On to `CCCCOCN(C(=O)CCl)c1c(CC)cccc1CC` [BUTACHLOR], for which the Activity with Oryza sativa [1] was determined as 106%; in the series on Cyperus serotinus [2], 70%; in the series with Sagittaria pygmaea [3] it was 20%; in the series on unidentified [4], 83%; in the series with Pontederia vaginalis [5], 43%; in series [6], 88%. For the same compound, the Activity in the series on Echinochloa crus-galli [7] amounted to 100%; with Cyperus serotinus [8], 63%; with Sagittaria pygmaea [9], 27%; in the series with unidentified [10], 100%; with Pontederia vaginalis [11] it was 90%; in series [12] it was 100%. Also, the Activity was 98% with Echinochloa crus-galli [13], 103% in the series with Oryza sativa [14], 93% with Oryza sativa [15] and 99% in the series with Oryza sativa [16].
